Several values for one entry are separate records, joined by “and”; a condition that tells them apart may be missing. Identical values can stand only once.
Experiments:
[1] = target: T1, Human Aryl Hydrocarbon Receptor (AHR) (Homo sapiens, UniProt P35869); assay: Cell-based luciferase reporter gene assay driven by AHR-responsive promoter
T1 sequence (P35869 11-848): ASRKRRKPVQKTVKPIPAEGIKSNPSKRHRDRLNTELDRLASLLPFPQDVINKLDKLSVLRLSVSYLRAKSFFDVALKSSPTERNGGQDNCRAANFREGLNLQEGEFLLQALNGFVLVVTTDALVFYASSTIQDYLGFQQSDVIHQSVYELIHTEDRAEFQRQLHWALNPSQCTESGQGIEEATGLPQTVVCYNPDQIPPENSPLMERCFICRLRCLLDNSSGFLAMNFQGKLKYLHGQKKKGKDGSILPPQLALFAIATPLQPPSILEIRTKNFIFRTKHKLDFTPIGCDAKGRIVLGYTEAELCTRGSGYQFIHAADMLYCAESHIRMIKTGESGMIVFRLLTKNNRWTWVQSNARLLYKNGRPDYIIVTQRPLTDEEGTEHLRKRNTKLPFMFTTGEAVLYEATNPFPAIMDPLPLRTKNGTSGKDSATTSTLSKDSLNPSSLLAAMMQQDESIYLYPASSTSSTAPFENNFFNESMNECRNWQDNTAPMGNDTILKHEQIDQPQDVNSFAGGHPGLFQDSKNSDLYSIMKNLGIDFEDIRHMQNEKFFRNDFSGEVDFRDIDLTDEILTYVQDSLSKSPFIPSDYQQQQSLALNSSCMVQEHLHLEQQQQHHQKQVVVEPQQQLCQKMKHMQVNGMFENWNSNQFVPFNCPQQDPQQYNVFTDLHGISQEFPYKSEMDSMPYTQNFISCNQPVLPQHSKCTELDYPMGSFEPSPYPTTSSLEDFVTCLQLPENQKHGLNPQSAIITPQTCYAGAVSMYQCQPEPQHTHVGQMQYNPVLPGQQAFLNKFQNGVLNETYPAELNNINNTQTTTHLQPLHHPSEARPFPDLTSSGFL

[2] = test system: CWR22-RH human prostate cancer PDXs; assay: In vivo growth of CWR22-RH PDX in castrate NSG mice; set-up: species or system human xenograft in NSG mice
68 kinases = assay: Targeted kinase screen; type: biochemical; conditions: 10 μM
thymus = assay: AHR agonist induced thymus regression in FVB male mice; type: in vivo
[3] = Serum pharmacokinetics after oral gavage in mice; type: in vivo
Water solubility = type: physicochemical
nuclear MEF2/HDAC4/NCoR1 = nuclear MEF2/HDAC4/NCoR1 (Homo sapiens, UniProt P56524); assay: Nuclear NCoR1 immunoprecipitated with MEF-2 in CWR-22Rv1 cells under hypoxia; type: cell-based; conditions: discussion summary
Sequence of nuclear MEF2/HDAC4/NCoR1 (P56524 whole entry): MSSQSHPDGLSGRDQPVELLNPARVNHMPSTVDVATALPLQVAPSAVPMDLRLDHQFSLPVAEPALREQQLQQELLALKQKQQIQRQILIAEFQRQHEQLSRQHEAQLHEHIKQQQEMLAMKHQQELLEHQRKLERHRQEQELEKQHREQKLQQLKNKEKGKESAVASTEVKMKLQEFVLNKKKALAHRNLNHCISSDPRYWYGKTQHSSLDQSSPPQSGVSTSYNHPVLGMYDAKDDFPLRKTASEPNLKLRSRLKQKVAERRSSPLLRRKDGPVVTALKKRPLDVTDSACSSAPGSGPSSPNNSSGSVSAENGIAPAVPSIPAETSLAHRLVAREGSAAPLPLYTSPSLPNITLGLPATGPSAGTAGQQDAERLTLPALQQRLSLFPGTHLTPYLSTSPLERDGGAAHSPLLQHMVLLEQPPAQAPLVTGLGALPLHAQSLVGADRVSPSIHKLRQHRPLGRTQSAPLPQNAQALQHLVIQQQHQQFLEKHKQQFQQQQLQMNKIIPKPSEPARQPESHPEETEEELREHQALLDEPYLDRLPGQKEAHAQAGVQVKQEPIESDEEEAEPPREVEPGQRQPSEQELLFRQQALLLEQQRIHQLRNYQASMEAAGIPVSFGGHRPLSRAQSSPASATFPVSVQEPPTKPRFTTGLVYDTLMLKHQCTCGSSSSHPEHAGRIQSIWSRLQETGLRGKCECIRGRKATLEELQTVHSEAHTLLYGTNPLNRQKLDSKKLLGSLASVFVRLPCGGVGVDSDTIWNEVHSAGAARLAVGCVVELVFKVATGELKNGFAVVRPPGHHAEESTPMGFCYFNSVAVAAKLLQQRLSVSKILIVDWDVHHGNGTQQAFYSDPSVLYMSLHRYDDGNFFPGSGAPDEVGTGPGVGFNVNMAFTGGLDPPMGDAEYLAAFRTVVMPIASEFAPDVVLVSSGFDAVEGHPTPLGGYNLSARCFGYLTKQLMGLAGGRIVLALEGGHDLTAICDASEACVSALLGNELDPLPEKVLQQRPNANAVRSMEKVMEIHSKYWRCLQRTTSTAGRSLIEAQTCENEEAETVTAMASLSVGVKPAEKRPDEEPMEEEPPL

human AHR = human AHR (Homo sapiens, UniProt P35869); assay: Photo-affinity label; conditions: competitive PAL AHR binding assay
liver Cyp1a1 = assay: Liver Cyp1a1 induction in mice; type: in vivo; conditions: oral, even at 30 mg/kg/d
[4] = chronic doses of ≤0.1 mg/kg; cited from earlier work
immobilized fl-HDAC4 = immobilized fl-HDAC4 (Homo sapiens, UniProt P56524); assay: SPR: compound in solution binding to immobilized fl-HDAC4; conditions: at >30 μM in solution, Zn2+ present
Sequence of immobilized fl-HDAC4 (P56524 whole entry): as above

[5] = test system: LvCaP-3 human prostate cancer PDXs; assay: In vivo growth of LvCaP-3 PDX in castrate mice; set-up: species or system human xenograft in mice; conditions: oral 10 mg/kg/d
fl-HDAC4 = fl-HDAC4 (Homo sapiens, UniProt P56524); assay: HDAC4 enzymatic assay with Lys; type: biochemical; conditions: Lys(TFA)-AMC substrate
Sequence of fl-HDAC4 (P56524 whole entry): as above

COc1cccc2c1c(O)c(C(=O)N(c1ccc(C(F)(F)F)cc1)C1CCCCC1)c(=O)n2C [ESATA-20]
fold lower AHR agonism than TasQ ([1]; cell-based AHR-promoter assay): 10 fold and ~ 10 fold | EC50 ([1]; read-out: AHR agonist EC50, human cell-based luciferase reporter): 10 µM | anti-cancer efficacy ([2]; 10 mg/kg/d oral): same significant maximal anti-cancer efficacy as TasQ | serum concentration at which maximal anti-prostate cancer efficacy is produced ([2]; in vivo): < 2 µM | change in activity in any of the 68 kinases (68 kinases): < 15% | thymus regression (thymus; oral, even at 30 mg/kg/d): lack of induction | fold lower bioavailability than TasQ ([3]; 10 mg/kg oral, DMSO/HPCD vehicle): 5.5 fold | alpha half-life for tissue distribution ([3]; mouse, in vivo): 3 h | beta half-life for serum elimination ([3]; mouse, in vivo): 10 to 12 h | drug bound to serum proteins ([3]; mouse, in vivo): > 98% | water solubility (Water solubility): less water soluble than TasQ | fold more potent HDAC4 inhibitor (vs TasQ) (nuclear MEF2/HDAC4/NCoR1): ≥ 5 fold | fold lower binding affinity than TasQ (human AHR): 10 fold | induction of liver Cyp1a1 (liver Cyp1a1): lack of induction

CN(C(=O)c1c(O)c2ccccc2n(C)c1=O)c1ccccc1 [Linomide, 4-hydroxy-N,1-dimethyl-2-oxo-N-phenyl-1,2-dihydroquinoline-3-carboxamide]
side effects in phase III trials [4]: several cases of pericarditis and neuropathy | share of immobilized fl-HDAC4 protein bound (immobilized fl-HDAC4): 10–15%

c1ccc2c(c1)cc1ccc3cccc4ccc2c1c34 [B(a)P, benzo[a]pyrene]
therapeutic efficacy [5]: completely lacks therapeutic efficacy | thymus weight (thymus; oral 10 mg/kg/d for 14 days, vehicle 72 +/− 3 (>70)): 27 ± 8 mg

COC(=O)c1c(O)c2c(OC)cccc2n(C)c1=O [ESATA-2]
growth inhibitor (GI) activity ([2]; oral 10 mg/kg/d over 3 weeks, castrate NSG mice): no GI activity

O=C(c1ccc(C(=O)C(F)(F)F)s1)N1CCn2c(-c3ccccc3)cnc2C1 [TFT-PIP]
effect on enzymatic activity (fl-HDAC4): inhibited
